Assay results reported in US10420836B2, “Methods of immunizing a subject and compositions related thereto” (priority 2015, dated 2019).
Read-outs that look alike come from different tables or passages of the source.

Experiments:
[1] = test system: influenza virus A/Udorn/1972 (H3N2); format: in vivo, mice; conditions: for survival: adjuvant co-administered intradermally with 1 μg HA A/Victoria/210/2009 subunit vaccine; for signs of disease after challenge / body weight loss after challenge: adjuvant with vaccine; for protective immune responses / protective immunity to influenza: used as adjuvant for intradermal influenza vaccination; for body weight loss after challenge: compared to the other vaccinated groups
[2] = test system: primary human keratinocytes; format: cell-based; conditions: primary human keratinocytes (unpublished)
[3] = test system: caspase-1; experiment: Preliminary cell-signaling data (inflammasome / caspase-1 activation)
[4] = test system: A/Victoria/210/2009 subunit influenza vaccine; format: in vivo, mice; conditions: after intradermal vaccination with A/Victoria/210/2009 plus adjuvant
[5] = Observation for adverse effects after adjuvanted skin vaccination; format: in vivo; conditions: low doses used for skin vaccination; four months post-adjuvanted vaccination
Source text: This modification may improve antigen presentation resulting in protective immunity. […] See Manoury. Proteases: essential actors in processing antigens and intracellular toll-like receptors. Frontiers in immunology 4, 299, (2013). Fullerene is considered as nanoparticle due to its structure that can recruit cells following skin immunization. The toxicity of fullerenes has been reported in Zhang et al., Endocytic mechanisms and toxicity of a functionalized fullerene in human cells. Toxicology letters 191, 149-157, (2009). […] Vaccine adjuvant and vaccine formulations of fullerene derivatives are reported in CN103495164.

Row | Compound | survival ([1]; 4×LD50 A/Udorn/1972 challenge) [%] | signs of disease after challenge [1] | survival rate ([1]; at three different doses tested (11.9, 119 and 1190 nanomoles) with vaccine, infection with A/Udorn 1972) [%] | protective immune responses / protective immunity to influenza [1] | IL-1 beta and TNF-α production [2] | caspase-1 activation [3] | body weight loss after challenge [1] | Serum IgG2a [4] | survival ([1]; […]) [%] | adverse effects [5] | longevity of immune responses ([1]; combined with vaccine, […])
1 | O=C1c2c(O)cccc2Cc2cccc(O)c21 [anthralin, 1,8-dihydroxy-9,10-dihydroanthracen-9-one] | 80 | fewer signs of disease | ≥ 80 | induces protective immune responses | large amounts | not activated | – | – | – | – | –
2 | O=C(Nc1cc(C(F)(F)F)cc(C(F)(F)F)c1)c1cc(Cl)ccc1O [IMD 0354, N-(3,5-bis-trifluoromethyl-phenyl)-5-chloro-2-hydroxy-benzamide] | 100 | – | – | improved protective immunity to influenza | – | – | minimal body weight loss | increased | – | – | –
3 | c12c3c4c5c1c1c6c7c2c2c8c3c3c9c4c4c%10c5c5c1c1c6c6c%11c7c2c2c7c8c3c3c8c9c4c4c9c%10c5c5c1c1c6c6c%11c2c2c7c3c3c8c4c4c9c5c1c1c6c2c3c41 [fullerene] | – | – | – | improved protective immune responses | – | – | – | – | 80 | no adverse effects | –
4 | CC(C)Cn1cnc2c(N)nc3ccccc3c21 [Imiquimod] | – | fewer signs of disease | – | – | – | – | lowest body weight loss | – | – | – | improved
